2 molecules from article PMC6057745, “The dual role of chloride in synaptic vesicle glutamate transport” (eLife, 2018) can be followed below.

Test [1] concerns the target T1, VGLUT1 (Rattus norvegicus, UniProt Q62634).
T1 construct: gene Slc17a7; full-length rat VGLUT1 fused to EGFP (pEGFP-N1); co-expressed with Rab5 Q79L-mCherry in HEK293T; whole endosome recording of isolated enlarged endosomes
T1 sequence (Q62634 1-560): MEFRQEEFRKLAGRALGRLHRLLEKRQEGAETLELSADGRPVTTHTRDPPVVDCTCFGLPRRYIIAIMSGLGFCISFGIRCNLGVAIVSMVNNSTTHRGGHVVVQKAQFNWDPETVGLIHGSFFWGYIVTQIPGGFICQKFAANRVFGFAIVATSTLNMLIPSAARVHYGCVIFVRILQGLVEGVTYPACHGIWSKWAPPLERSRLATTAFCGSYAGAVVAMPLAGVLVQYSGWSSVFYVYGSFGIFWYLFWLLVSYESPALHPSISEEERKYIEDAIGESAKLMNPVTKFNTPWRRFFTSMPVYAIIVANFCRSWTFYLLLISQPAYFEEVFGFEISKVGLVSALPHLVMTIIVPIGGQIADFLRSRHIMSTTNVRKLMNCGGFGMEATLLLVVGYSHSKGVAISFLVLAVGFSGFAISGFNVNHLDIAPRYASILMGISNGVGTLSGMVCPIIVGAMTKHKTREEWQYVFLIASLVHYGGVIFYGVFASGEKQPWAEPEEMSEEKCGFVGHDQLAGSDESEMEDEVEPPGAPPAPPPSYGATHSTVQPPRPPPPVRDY
Kind of test: whole endosome patch clamp, block of Cl- and glutamate currents. It counts as biochemical.

Test [2] has as its target T1, VGLUT1. Kind of test: whole endosome patch clamp, outward glutamate currents. The class given is biochemical. As for the experimental part: whole endosome patch clamp, outward glutamate currents on VGLUT1 | glutamate currents saturate with EC50376 µM
(In patch-clamp work, channel activity is measured electrically.)

What is called IC50 is the concentration that inhibits the measured activity by half. Turning to `Cc1cc(-c2ccc(/N=N/c3ccc4c(S(=O)(=O)O)cc(S(=O)(=O)O)c(N)c4c3O)c(C)c2)ccc1/N=N/c1ccc2c(S(=O)(=O)O)cc(S(=O)(=O)O)c(N)c2c1O` [Evans Blue], the concentration for half-maximal inhibition (IC50) against VGLUT1 [1] was roughly 0.2 µM.

In general, EC50 refers to the concentration that produces a half-maximal response. High values mean a need for much substance, low ones an effect from little substance. `N[C@@H](CCC(=O)O)C(=O)O` [glutamate]: the response at VGLUT1 [2] was half-maximal at 376 µM (EC50).
